According to patent US9522881B2, “Hydroxyindole carboxylic acid based inhibitors for oncogenic Src homology-2 domain containing protein tyrosine phosphatase-2 (SHP2)” (Indiana University Research and Technology Corporation, priority 2013, dated 2016):
“Also recorded” adds a separate entry of the source.

Assays:
[1] = test system: PMA-induced Erk1/2 phosphorylation; assay: PMA-induced Erk1/2 phosphorylation; type: cell-based
Description: To provide further evidence that the observed cellular effect of compound 11a-1 is SHP2 dependent, the effect of compound 11a-1 on PMA (phorbol 12-myristate 13-acetate)-induced Erk1/2 activation, which is SHP2 independent and instead depends on the activation of protein kinase C and Raf in a Ras-independent manner, was evaluated. Thus, SHP2 inhibitors would not be expected to affect PMA-induced Erk1/2 phosphorylation. Indeed, compound 11a-1 had no effect on PMA-induced Erk1/2 phosphorylation (FIG. 6D).

VHR = VHR (Homo sapiens (Human), UniProt P51452); assay: PTP selectivity panel, pNPP; type: biochemical, mammalian; settings: pNPP at Km
Sequence of VHR (P51452 whole entry, species assumed): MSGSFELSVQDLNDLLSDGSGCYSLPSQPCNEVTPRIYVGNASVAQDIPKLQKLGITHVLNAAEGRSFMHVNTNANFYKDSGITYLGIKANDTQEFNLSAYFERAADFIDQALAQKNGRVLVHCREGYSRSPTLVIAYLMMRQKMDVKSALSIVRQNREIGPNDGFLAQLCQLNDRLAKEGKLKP

[2] = test system: 32D myeloid cells bearing KITD814V; assay: Proliferation (thymidine incorporation) of 32D myeloid cells bearing KITD814V; type: cell-based
Description: (§1) FIG. 8A is a graph depicting 32D myeloid cells bearing wild-type (WT) KIT or KITD814V that were starved of serum and growth factors for 6 hours and subjected to proliferation assay in the presence or absence of the indicated concentration of II-B08 or 11a-1 as analyzed in Example 6. Assay was performed in the presence of IL-3 (10 ng/mL) for cells bearing WT KIT and in the absence of growth factors for cells bearing oncogenic KITD814V. Bars denote the mean thymidine incorporation (CPM±SEM) consolidated from four independent experiments performed in triplicate. *p<0.05.
(§2) To further determine the efficacy of compound 11a-1, the growth of oncogenic KITD814V bearing 32D myeloid cells in the presence of II-B08 and 11a-1 were compared. Specifically, the wild-type (WT) KIT and KITD814V were inserted into the bicistronic retroviral vector, MIEG3, upstream of the internal ribosome entry site (IRES) and the enhanced green fluorescent protein (EGFP) gene as previously described in Mali et al., 2012. Retroviral supernatants for transduction of 32D myeloid cells and primary hematopoietic stem and progenitor cells were generated using Phoenix ecotropic packaging cell line transfected with retroviral vector plasmids using a calcium phosphate transfection kit (Invitrogen, Carlsbad, Calif.). Supernatants were collected 48 hours after transfection and filtered through 0.45 μm membranes. 32D myeloid cells were infected twice at 24-hour intervals with 2 mL high/titer virus supernatant in the presence of 10 ng/mL IL-3 and 8 μg/mL polybrene. Forty-eight hours after infection, 32D cells expressing WT KIT or KITD814V receptors were sorted to homogeneity based on EGFP expression and utilized to perform all of the experiments.

[3] = test system: EGF-induced Erk1/2 phosphorylation; assay: EGF-induced Erk1/2 phosphorylation in H1975 cells (immunoblot); type: cell-based, human
Description: (§3) For biochemical studies, H1975 cells were serum-starved overnight followed by treatment with vehicle or compound 11a-1 for 3 hours, and then either left unstimulated or stimulated with 5 ng/ml EGF (Sigma, St. Louis, Mo.) for 60 minutes. Lysates were then resolved by SDS-PAGE and the protein phosphorylation levels were detected by immunoblot analysis. Specifically, cells were lysed in lysis buffer (1.0% Nonidet P-40, 50 mM Tris-HCl (pH 7.4), 150 mM NaCl, 5 mM EDTA, 2 mM NaVO3, 10 mM NaF) plus a protease inhibitor mixture available from Roche (Basel, Switzerland) and centrifuged at 10,000 rpm for 5 minutes at 4° C. Supernatants were collected and protein concentration was determined using the BCA protein assay (ThermoFisher Scientific, Rockford, Ill.). Equal amount of protein extracts were mixed with gel loading buffer and separated on SDS-PAGE. After electrophoresis, the proteins were transferred onto nitrocellulose membranes and nonspecific binding was blocked with 5% nonfat dry milk in Tris-buffered saline containing 0.1% Tween-20 (TBS-T). Membranes were then probed with various antibodies overnight at 4° C. on a rocker. After incubation, membranes were washed with TBS-T and incubated with appropriate horseradish peroxidase (HRP)-conjugated secondary antibodies for 1 hour at room temperature. Finally, the proteins on the membranes were detected using SuperSignal West Dura Luminol/Enhancer solution (ThermoFisher Scientific, Rockford, Ill.) and membranes were analyzed using Bio-Rad ChemiDoc XRS Imaging System.

SHP2 = SHP2 (Homo sapiens (Human), UniProt Q06124); assay: SHP2-catalyzed hydrolysis of p-nitrophenyl phosphate (pNPP); type: biochemical
Sequence of SHP2 (Q06124 whole entry, looked up): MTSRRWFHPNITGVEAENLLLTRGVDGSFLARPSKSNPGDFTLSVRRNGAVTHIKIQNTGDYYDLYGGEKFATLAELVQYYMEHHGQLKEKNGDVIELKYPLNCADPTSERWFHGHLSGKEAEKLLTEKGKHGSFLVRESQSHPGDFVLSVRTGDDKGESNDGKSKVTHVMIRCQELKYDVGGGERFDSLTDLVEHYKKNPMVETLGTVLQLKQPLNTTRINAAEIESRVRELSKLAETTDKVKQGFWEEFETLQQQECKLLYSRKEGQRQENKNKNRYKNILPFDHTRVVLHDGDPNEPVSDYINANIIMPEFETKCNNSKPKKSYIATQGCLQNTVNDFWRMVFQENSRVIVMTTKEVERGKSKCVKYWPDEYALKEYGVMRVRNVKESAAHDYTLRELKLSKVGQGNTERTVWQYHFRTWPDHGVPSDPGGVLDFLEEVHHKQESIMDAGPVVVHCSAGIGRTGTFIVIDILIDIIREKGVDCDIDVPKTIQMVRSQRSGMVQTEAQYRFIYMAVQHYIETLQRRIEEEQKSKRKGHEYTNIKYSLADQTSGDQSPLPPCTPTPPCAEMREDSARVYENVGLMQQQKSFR

[4] = test system: 32D myeloid cells bearing wild-type (WT) KIT; assay: Proliferation (thymidine incorporation) of 32D myeloid cells bearing WT KIT; type: cell-based; settings: tested concentrations, with IL-3
Description: as §1
as §2, with “32D myeloid cells were infected twice at 24-hour intervals with 2 mL high/titer virus supernatant in the presence of 10 ng/mL IL-3 and 8 μg/mL polybrene. Forty-eight hours after infection, 32D cells expressing WT KIT or KITD814V receptors were sorted to homogeneity based on EGFP expression and utilized to perform all of the experiments.” left out

Laforin = Laforin (Homo sapiens (Human), UniProt O95278); assay: PTP selectivity panel, pNPP; type: biochemical, mammalian; settings: pNPP at Km
Sequence of Laforin (O95278 whole entry, species assumed): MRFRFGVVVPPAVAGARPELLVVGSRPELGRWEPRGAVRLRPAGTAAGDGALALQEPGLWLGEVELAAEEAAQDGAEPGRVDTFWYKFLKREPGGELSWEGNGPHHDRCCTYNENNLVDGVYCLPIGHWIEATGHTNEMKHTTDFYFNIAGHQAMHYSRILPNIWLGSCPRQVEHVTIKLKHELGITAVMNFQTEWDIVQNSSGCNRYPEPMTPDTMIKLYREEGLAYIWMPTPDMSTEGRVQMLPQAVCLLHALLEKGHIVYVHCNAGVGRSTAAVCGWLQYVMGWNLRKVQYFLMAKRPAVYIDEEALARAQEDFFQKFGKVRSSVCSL

MKP5 = MKP5 (Homo sapiens (Human), UniProt Q9Y6W6); assay: PTP selectivity panel, pNPP; type: biochemical, mammalian; settings: pNPP at Km
Sequence of MKP5 (Q9Y6W6 whole entry, species assumed): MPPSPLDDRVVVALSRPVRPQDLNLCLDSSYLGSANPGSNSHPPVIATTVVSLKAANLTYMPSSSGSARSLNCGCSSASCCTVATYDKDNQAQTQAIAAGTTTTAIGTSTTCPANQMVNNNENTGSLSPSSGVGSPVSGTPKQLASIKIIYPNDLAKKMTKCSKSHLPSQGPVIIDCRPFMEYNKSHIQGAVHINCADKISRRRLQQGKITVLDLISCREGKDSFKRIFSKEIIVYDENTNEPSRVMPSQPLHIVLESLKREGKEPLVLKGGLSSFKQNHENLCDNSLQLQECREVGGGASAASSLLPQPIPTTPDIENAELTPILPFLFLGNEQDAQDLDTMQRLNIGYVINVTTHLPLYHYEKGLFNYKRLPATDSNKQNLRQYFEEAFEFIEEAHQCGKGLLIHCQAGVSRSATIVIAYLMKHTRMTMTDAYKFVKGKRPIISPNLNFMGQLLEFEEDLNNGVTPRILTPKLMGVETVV

PEZ = PEZ (Homo sapiens (Human), UniProt Q15678); assay: PTP selectivity panel, pNPP; type: biochemical, mammalian; settings: pNPP at Km
Sequence of PEZ (Q15678 whole entry, species assumed): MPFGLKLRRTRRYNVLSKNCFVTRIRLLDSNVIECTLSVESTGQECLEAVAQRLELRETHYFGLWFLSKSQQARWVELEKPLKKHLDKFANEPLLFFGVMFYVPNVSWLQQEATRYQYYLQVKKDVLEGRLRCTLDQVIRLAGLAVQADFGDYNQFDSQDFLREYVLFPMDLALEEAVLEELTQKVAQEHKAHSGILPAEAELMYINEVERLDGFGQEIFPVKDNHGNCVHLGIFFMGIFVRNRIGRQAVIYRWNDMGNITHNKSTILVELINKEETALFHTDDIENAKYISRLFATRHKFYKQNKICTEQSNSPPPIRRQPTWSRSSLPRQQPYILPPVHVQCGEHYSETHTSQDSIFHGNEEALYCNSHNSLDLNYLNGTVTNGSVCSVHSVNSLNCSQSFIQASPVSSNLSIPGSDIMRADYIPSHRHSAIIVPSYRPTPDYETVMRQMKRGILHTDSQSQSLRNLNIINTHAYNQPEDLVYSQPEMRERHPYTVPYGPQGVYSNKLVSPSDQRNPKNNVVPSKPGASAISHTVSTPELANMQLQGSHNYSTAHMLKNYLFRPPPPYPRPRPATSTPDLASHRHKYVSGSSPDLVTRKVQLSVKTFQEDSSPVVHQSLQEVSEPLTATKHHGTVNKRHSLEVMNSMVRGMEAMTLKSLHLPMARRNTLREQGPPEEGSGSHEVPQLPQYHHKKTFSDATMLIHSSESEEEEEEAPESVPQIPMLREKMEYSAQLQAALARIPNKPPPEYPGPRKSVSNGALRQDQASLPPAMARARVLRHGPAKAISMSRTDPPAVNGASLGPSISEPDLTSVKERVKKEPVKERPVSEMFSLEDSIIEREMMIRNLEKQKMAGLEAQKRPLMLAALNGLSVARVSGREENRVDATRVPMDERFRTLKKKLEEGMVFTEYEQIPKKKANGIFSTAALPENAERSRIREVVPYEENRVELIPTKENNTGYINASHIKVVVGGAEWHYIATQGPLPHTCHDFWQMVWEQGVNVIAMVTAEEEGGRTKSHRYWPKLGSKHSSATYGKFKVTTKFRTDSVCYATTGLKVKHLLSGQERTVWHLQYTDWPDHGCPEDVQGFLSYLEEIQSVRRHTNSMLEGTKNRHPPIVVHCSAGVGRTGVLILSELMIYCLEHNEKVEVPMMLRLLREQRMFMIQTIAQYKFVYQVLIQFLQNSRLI

PTPμ = PTPμ (Homo sapiens (Human), UniProt P28827); assay: PTP selectivity panel, pNPP; type: biochemical, mammalian; settings: pNPP at Km
Sequence of PTPμ (P28827 21-1452): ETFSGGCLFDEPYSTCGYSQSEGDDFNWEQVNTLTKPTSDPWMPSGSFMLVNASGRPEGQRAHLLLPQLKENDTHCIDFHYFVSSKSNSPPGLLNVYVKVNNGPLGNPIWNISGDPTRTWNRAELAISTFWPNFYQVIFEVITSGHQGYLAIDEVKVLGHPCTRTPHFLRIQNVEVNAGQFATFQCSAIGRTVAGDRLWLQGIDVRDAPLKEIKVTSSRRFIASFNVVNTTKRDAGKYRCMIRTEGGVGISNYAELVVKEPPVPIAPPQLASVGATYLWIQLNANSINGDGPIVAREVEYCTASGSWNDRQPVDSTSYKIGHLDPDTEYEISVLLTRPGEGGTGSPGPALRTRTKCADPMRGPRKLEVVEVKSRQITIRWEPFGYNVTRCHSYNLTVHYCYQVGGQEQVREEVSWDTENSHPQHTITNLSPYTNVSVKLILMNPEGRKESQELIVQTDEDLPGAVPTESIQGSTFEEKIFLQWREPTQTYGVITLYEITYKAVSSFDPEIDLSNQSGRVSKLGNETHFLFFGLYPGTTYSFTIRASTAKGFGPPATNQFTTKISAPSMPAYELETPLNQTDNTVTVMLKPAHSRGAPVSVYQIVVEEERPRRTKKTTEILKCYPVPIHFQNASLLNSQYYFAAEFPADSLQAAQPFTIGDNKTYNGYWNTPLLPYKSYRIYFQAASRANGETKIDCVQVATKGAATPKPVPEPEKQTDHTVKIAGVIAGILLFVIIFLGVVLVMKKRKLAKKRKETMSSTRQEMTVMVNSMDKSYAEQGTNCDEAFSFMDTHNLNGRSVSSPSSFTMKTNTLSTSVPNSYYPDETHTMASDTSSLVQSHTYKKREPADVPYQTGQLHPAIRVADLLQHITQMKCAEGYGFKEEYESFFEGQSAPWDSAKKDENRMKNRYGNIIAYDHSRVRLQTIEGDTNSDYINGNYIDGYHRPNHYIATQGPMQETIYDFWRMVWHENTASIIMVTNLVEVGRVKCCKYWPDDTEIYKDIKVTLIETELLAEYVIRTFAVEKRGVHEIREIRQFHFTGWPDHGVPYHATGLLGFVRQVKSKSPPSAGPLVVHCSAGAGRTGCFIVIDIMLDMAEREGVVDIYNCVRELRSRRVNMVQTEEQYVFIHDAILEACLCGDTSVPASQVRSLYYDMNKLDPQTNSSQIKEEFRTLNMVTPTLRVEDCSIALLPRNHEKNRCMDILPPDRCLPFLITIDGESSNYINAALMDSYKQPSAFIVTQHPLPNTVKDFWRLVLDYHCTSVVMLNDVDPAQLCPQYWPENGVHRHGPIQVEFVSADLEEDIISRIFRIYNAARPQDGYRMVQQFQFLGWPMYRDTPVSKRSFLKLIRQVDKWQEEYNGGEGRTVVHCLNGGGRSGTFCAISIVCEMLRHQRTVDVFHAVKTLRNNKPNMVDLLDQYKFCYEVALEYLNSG

Paxillin (pY118) = Paxillin (pY118) phosphorylation in H1975 cells (immunoblot); type: cell-based, human
Description: as §3

[5] = test system: phosphorylation of SHP2, Akt and Erk1/2; assay: Phosphorylation of SHP2, Akt and Erk1/2 in 32D cells bearing KITD814V (western blot); type: cell-based; settings: incubated 2 hours
Description: FIG. 8C depicts 32D myeloid cells bearing KITD814V that were starved of serum and growth factors for 6 hours and incubated with the indicated concentration of 11a-1 for 2 hours as analyzed in Example 6. After treatment, cells were lysed and equal amount of protein lysates were subjected to western blot analysis using indicated antibodies.

Cn1c(-c2cccc(NC(=O)C(=O)Nc3ccc(-c4ccsc4)cc3)c2)c(I)c2cc(C(=O)O)c(O)cc21 [11a-1, 6-hydroxy-3-iodo-1-methyl-2-(3-(2-oxo-2-((4-(thiophen-3-yl)phenyl)amino)acetamido)phenyl)-1H-indole-5-carboxylic acid]
effect on PMA-induced Erk1/2 phosphorylation [1]: no effect | IC50 (VHR): 3.19 ± 0.09 µM | ligand independent growth of KITD814V bearing 32D cells ([2]; 1 μM): significant inhibition | ligand independent growth of KITD814V bearing 32D cells ([2]; 5 μM): significant inhibition | reduction of Erk1/2 phosphorylation ([3]; H1975 cells, 2 μM): 40% | effect on EGF-induced Erk1/2 phosphorylation ([3]; H1975 cells, dose-dependent): effectively reduced; also recorded: decreased | ability to inhibit EGF-mediated Erk1/2 activation in SHP2 knocked down cells ([3]; SHP2 knocked down with siRNA): blunted | selectivity for SHP2 over a panel of 20 mammalian PTPs (SHP2): over 5 fold | IC50 (SHP2; pNPP substrate, pH 7.0, 25° C.): 0.2 ± 0.02 µM | growth of WT KIT bearing 32D cells [4]: no significant suppression | IC50 (Laforin): 12.2 ± 2 µM | IC50 (MKP5): 2.9 ± 0.1 µM | IC50 (PEZ): 5.3 ± 0.2 µM | IC50 (PTPμ): 3.3 ± 0.2 µM | augmentation of Paxillin phosphorylation (Paxillin (pY118); 2 μM): 30% | effect on EGF induced Paxillin (Y118) phosphorylation (Paxillin (pY118); dose-dependent): dose-dependently increased | phosphorylation of SHP2, Akt and Erk1/2 in KITD814V bearing 32D cells [5]: dose dependent inhibition
